Where two headings read alike, the source gives them in different places. Where no end group is shown, it is not given here.
Columns and labels:
Type in all cases: cell-based
[1] = system: Human Embryonic Kidney 293T (HEK) cells; assay: Ultrasound-evoked GCaMP6f calcium response of HEK cells transfected with candidate channels (screen and TRPA1 variants); conditions: for Response to ultrasound stimulation (cells activated, GCaMP6f): transfected GCaMP6f HEK cells, 6.91 MHz, screen at 100 msecs, 1.5 MPa
mouse-Piezol = mouse-Piezol (Mus musculus, UniProt E2JF22); conditions: yoda-1 10 μM
Chain of mouse-Piezol (E2JF22 whole entry): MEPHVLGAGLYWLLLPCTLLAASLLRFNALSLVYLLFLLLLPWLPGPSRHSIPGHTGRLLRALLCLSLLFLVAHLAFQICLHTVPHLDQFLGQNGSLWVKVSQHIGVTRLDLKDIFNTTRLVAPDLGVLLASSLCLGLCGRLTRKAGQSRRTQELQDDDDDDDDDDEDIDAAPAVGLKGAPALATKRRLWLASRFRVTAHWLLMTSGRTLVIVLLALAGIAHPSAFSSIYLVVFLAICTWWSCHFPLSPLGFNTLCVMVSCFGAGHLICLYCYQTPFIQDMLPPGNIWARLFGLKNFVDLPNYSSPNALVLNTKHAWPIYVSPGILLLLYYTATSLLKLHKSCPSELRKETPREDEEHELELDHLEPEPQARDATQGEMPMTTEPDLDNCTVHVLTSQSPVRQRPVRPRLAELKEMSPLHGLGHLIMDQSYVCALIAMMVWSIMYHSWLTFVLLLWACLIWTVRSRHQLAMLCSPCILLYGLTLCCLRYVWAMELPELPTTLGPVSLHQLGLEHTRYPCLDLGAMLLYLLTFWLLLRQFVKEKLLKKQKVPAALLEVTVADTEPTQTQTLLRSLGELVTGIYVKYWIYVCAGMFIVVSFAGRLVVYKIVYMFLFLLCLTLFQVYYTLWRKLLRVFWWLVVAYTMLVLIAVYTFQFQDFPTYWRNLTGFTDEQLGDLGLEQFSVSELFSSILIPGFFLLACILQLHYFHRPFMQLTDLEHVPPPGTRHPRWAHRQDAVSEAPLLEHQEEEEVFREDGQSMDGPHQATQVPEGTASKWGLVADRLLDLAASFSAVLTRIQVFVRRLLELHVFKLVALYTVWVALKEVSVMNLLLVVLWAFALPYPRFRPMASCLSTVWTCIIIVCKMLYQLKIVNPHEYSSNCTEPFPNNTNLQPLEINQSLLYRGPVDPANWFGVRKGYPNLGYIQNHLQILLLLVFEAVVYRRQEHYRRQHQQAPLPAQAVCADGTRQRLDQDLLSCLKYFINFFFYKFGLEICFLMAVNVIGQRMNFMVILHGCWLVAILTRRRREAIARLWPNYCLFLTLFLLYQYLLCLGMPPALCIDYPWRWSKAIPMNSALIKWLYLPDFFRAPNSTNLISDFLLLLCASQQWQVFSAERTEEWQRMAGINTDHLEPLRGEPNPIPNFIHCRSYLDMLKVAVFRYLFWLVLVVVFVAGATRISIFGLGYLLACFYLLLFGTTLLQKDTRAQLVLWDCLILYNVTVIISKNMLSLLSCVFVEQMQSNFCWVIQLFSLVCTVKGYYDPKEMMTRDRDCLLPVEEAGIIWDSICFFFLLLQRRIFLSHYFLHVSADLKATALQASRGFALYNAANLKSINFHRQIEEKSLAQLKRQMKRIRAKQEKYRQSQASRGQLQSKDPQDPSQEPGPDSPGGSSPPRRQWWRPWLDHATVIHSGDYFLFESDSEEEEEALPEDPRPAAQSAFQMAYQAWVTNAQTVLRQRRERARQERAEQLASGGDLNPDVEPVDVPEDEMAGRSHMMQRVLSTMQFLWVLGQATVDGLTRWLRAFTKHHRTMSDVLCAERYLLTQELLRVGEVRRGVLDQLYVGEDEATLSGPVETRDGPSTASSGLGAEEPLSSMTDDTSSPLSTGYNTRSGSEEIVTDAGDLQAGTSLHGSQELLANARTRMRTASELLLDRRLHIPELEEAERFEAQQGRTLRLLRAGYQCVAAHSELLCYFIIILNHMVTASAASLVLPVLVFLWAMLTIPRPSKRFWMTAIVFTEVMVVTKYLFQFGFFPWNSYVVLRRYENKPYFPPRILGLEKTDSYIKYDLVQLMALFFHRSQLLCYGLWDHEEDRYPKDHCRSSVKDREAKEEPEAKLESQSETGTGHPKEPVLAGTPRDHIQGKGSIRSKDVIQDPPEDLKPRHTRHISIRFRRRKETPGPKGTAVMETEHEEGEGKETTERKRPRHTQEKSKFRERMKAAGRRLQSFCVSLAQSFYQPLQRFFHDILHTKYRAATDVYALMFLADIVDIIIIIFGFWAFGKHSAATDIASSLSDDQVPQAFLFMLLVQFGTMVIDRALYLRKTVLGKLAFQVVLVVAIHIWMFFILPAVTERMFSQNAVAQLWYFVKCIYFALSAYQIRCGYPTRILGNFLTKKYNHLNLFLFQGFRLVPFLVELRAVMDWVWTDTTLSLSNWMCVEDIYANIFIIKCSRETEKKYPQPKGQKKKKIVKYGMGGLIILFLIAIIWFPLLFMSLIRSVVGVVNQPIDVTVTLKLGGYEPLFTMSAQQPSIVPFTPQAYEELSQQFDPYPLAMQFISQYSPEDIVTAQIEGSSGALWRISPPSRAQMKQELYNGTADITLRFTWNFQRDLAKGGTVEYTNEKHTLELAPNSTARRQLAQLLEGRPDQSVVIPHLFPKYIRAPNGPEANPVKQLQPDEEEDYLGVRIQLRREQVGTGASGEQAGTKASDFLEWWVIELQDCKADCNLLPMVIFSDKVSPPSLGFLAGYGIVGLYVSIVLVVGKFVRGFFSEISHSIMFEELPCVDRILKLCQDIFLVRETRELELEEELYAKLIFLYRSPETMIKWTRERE

hsTRPA1 [2] = target: T1, hsTRPA1 (Homo sapiens, UniProt O75762); assay: Agonist activation of hsTRPA1-expressing HEK cells (GCaMP6f); conditions: NMM 100 μM; AITC 33 μM; dTom control cells for comparison
T1 construct: HEK cells transfected with either full-length hsTRPA1 or channels containing deletions; porcine teschovirus-1 2A self-cleaving peptide (p2A) linking the channel to dTomato in a bicistronic vector (cleaved yes); host or cells: HEK 293T cells expressing human alpha-v beta-3 integrin and stably expressing GCaMP6f
T1 sequence (O75762 whole entry): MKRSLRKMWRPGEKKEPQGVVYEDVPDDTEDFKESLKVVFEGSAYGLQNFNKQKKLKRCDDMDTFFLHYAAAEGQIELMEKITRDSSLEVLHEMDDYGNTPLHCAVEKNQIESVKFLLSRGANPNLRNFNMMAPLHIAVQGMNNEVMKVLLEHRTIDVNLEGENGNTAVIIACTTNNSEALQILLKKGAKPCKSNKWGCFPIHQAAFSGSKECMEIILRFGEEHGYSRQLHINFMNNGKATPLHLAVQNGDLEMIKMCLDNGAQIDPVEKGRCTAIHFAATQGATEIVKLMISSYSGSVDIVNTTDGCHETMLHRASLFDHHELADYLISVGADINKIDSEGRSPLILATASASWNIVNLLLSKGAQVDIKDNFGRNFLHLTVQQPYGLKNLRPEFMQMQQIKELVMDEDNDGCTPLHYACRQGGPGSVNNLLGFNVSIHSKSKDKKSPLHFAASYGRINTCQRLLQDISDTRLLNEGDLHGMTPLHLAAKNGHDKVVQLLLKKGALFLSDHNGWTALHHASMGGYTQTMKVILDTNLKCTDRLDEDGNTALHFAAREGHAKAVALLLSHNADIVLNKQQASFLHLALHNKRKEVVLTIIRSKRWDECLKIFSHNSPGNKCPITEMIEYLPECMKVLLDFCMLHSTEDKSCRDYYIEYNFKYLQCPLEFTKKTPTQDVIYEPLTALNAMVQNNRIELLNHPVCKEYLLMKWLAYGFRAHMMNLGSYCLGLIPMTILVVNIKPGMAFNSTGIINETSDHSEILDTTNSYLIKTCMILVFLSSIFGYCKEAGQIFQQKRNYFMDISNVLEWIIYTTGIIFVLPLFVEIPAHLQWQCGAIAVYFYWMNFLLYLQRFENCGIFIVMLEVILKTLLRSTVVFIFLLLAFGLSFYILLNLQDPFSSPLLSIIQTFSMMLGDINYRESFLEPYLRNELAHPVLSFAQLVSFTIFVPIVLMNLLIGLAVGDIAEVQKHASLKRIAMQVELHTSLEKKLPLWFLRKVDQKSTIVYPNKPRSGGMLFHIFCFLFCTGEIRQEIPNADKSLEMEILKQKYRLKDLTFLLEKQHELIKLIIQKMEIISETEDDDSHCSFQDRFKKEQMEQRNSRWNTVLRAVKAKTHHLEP

[3] = system: mouse primary cortical neurons; assay: GCaMP6f calcium imaging of primary cortical neurons under ultrasound or AITC
hsTRPA1 [4] = target: T1, hsTRPA1; assay: Effect of agents on ultrasound-evoked GCaMP6f response of hsTRPA1-expressing HEK cells
hsTRPA1 [5] = target: T1, hsTRPA1; assay: Effect of agents on AITC-triggered GCaMP6f response of hsTRPA1-expressing HEK cells; conditions: AITC 33 μM; after incubation with agent; versus vehicle
hsTRPA1 [6] = target: T1, hsTRPA1
[7] = system: Human Embryonic Kidney 293T (HEK) cells; assay: AITC (chemical agonist) GCaMP6f response of HEK cells transfected with hsTRPA1 variants; conditions: AITC 33 μM
[8] = control neurons without hsTRPA1
[9] = agent added 45 minutes before, HC-030031 40 μM, MCD 5 mM, nocodazole 5 μM, latrunculin A 1 μM, paclitaxel 600 nM, versus vehicle
[10] = A784168 2 μM, BAPTA 30 μM, versus vehicle

mouse homolog: mouse TRPA1 (Mus musculus; RefSeq NM_177781)
Response to ultrasound stimulation (cells activated, GCaMP6f) [1]: only a third as responsive as hsTRPA1

GsMTx-4-4: GsMTx-4, applied to Piezo1- and TRPV1-expressing HEK cells (GCLEFWWKCNPNDDKCCRPKLKCSKLFKLCNFSF; ends and bridges not checked; cysteine pairing not given here; UniProt Q7YT39 47-80, looked up)
Response of HEK cells expressing mouse Piezo1 to compound (mouse-Piezol): not

C=CCN=C=S [AITC, allyl isothiocyanate]
Activation of TRPA1-expressing HEK cells by agonist (GCaMP6f) (hsTRPA1 [2]): specifically activated TRPA1-expressing HEK cells | Response of Cre-only control neurons to agonist [3, 8]: did not respond

methyl-beta-cyclodextrin [MCD]
Effect on ultrasound responses of hsTRPA1-expressing HEK cells (GCaMP6f peak amplitude) (hsTRPA1 [4]; [9]): attenuated hsTRPA1 responses to ultrasound | Effect on AITC-triggered responses of hsTRPA1-expressing HEK cells (hsTRPA1 [5]): did not affect the response to AITC

mouse-Piezol: mouse Piezo1 channel expressed in HEK cells
Response to ultrasound stimulation (cells activated, GCaMP6f) [1]: not

C/C1=C/C(=O)O[C@@H]2C[C@@H](CC[C@H](C)/C=C\C=C\CC1)O[C@@](O)([C@@H]1CSC(=O)N1)C2 [latrunculin A]
Effect on ultrasound responses of hsTRPA1-expressing HEK cells (GCaMP6f peak amplitude) (hsTRPA1 [4]; [9]): reduced the ultrasound responses | Effect on AITC-triggered responses of hsTRPA1-expressing HEK cells (hsTRPA1 [5]): significantly reduced

O=C(O)CN(CC(=O)O)c1ccccc1OCCOc1ccccc1N(CC(=O)O)CC(=O)O [BAPTA]
Effect on ultrasound responses of hsTRPA1-expressing neurons (GCaMP6f) [3, 10]: blocked neuronal responses to ultrasound

CN1C(=O)C=CC1=O [NMM, N-methylmaleimide]
Activation of TRPA1-expressing HEK cells by agonist (GCaMP6f) (hsTRPA1 [2]): specifically activated TRPA1-expressing HEK cells

NC1=N[C@H](O)[C@H]2[C@H]3O[C@]4(O)O[C@@H]([C@@H](O)[C@@]2(N1)[C@@H]4O)[C@]3(O)CO [tetrodotoxin]
Effect on ultrasound responses of hsTRPA1-expressing neurons (GCaMP6f) [3]: partially blocked | Effect on ultrasound-evoked activity of control (Cre) neurons [3]: completely abolishing responses

C/C1=C\[C@H](C)C[C@H](C)OC(=O)C[C@H](c2ccc(O)cc2)NC(=O)[C@@H](Cc2c(Br)[nH]c3ccccc23)N(C)C(=O)[C@H](C)NC(=O)[C@@H](C)C1 [jasplakinolide]
Effect on AITC-triggered responses of hsTRPA1-expressing HEK cells (hsTRPA1 [5]): significantly reduced

CC(=O)O[C@H]1C(=O)[C@@]2(C)[C@H]([C@H](OC(=O)c3ccccc3)[C@]3(O)C[C@H](OC(=O)[C@H](O)[C@@H](NC(=O)c4ccccc4)c4ccccc4)C(C)=C1C3(C)C)[C@]1(OC(C)=O)CO[C@@H]1C[C@@H]2O [Taxol, paclitaxel]
Effect on ultrasound responses of hsTRPA1-expressing HEK cells (GCaMP6f peak amplitude) (hsTRPA1 [4]; [9]): no significant effect | Effect on AITC-triggered responses of hsTRPA1-expressing HEK cells (hsTRPA1 [5]): significantly reduced

C=C1[C@@H](C)[C@H]2[C@H](Cc3ccccc3)NC(=O)[C@]23[C@H](OC(C)=O)/C=C/[C@@](C)(O)C(=O)[C@@H](C)C/C=C/[C@H]3[C@@H]1O [cytochalasin D]
Effect on ultrasound responses of hsTRPA1-expressing HEK cells (GCaMP6f peak amplitude) (hsTRPA1 [4]; [9]): reduced the ultrasound responses | Effect on AITC-triggered responses of hsTRPA1-expressing HEK cells (hsTRPA1 [5]): not to be altered

CC(C)c1ccc(NC(=O)Cn2cnc3c2c(=O)n(C)c(=O)n3C)cc1 [HC-030331]
Effect on ultrasound responses of hsTRPA1-expressing HEK cells (GCaMP6f peak amplitude) (hsTRPA1 [4]): inhibited | Effect on ultrasound-triggered membrane events (mean peak amplitude) (hsTRPA1 [6]): attenuated | Effect on ultrasound responses of hsTRPA1-expressing neurons (GCaMP6f) [3, 10]: significantly attenuated | Effect on ultrasound-evoked activity of control (Cre) neurons [3, 8]: without affecting

Clc1cccc(Cl)c1CSc1nnc(-c2cnccn2)s1 [yoda-1]
Response of HEK cells expressing mouse Piezo1 to compound (mouse-Piezol): respond

COC(=O)Nc1nc2ccc(C(=O)c3cccs3)cc2[nH]1 [nocodazole]
Effect on ultrasound responses of hsTRPA1-expressing HEK cells (GCaMP6f peak amplitude) (hsTRPA1 [4]; [9]): no significant effect | Effect on AITC-triggered responses of hsTRPA1-expressing HEK cells (hsTRPA1 [5]): not to be altered

B1: human-TRPV1: human TRPV1 channel expressed in HEK cells (protein, UniProt Q8NER1 1-839, looked up)
Transient receptor potential …: MKKWSSTDLGAAADPLQKDTCPDPLDGDPNSRPPPAKPQLSTAKSRTRLFGKGDSEEAFPVDCPHEEGELDSCPTITVSPVITIQRPGDGPTGARLLSQDSVAASTEKTLRLYDRRSIFEAVAQNNCQDLESLLLFLQKSKKHLTDNEFKDPETGKTCLLKAMLNLHDGQNTTIPLLLEIARQTDSLKELVNASYTDSYYKGQTALHIAIERRNMALVTLLVENGADVQAAAHGDFFKKTKGRPGFYFGELPLSLAACTNQLGIVKFLLQNSWQTADISARDSVGNTVLHALVEVADNTADNTKFVTSMYNEILMLGAKLHPTLKLEELTNKKGMTPLALAAGTGKIGVLAYILQREIQEPECRHLSRKFTEWAYGPVHSSLYDLSCIDTCEKNSVLEVIAYSSSETPNRHDMLLVEPLNRLLQDKWDRFVKRIFYFNFLVYCLYMIIFTMAAYYRPVDGLPPFKMEKTGDYFRVTGEILSVLGGVYFFFRGIQYFLQRRPSMKTLFVDSYSEMLFFLQSLFMLATVVLYFSHLKEYVASMVFSLALGWTNMLYYTRGFQQMGIYAVMIEKMILRDLCRFMFVYIVFLFGFSTAVVTLIEDGKNDSLPSESTSHRWRGPACRPPDSSYNSLYSTCLELFKFTIGMGDLEFTENYDFKAVFIILLLAYVILTYILLLNMLIALMGETVNKIAQESKNIWKLQRAITILDTEKSFLKCMRKAFRSGKLLQVGYTPDGKDDYRWCFRVDEVNWTTWNTNVGIINEDPGNCEGVKRTLSFSLRSSRVSGRHWKNFALVPLLREASARDRQSAQPEEVYLRQFSGSLKPEDAEVFKSPAASGEK
Response to ultrasound stimulation (cells activated, GCaMP6f) [1]: not

B2: Y785S: hsTRPA1 mutant with TM2 CRAC domain disrupted, Tyr785 replaced with Ser (protein, UniProt O75762 1-1119, looked up, variant Y785S)
Transient receptor potential …: MKRSLRKMWRPGEKKEPQGVVYEDVPDDTEDFKESLKVVFEGSAYGLQNFNKQKKLKRCDDMDTFFLHYAAAEGQIELMEKITRDSSLEVLHEMDDYGNTPLHCAVEKNQIESVKFLLSRGANPNLRNFNMMAPLHIAVQGMNNEVMKVLLEHRTIDVNLEGENGNTAVIIACTTNNSEALQILLKKGAKPCKSNKWGCFPIHQAAFSGSKECMEIILRFGEEHGYSRQLHINFMNNGKATPLHLAVQNGDLEMIKMCLDNGAQIDPVEKGRCTAIHFAATQGATEIVKLMISSYSGSVDIVNTTDGCHETMLHRASLFDHHELADYLISVGADINKIDSEGRSPLILATASASWNIVNLLLSKGAQVDIKDNFGRNFLHLTVQQPYGLKNLRPEFMQMQQIKELVMDEDNDGCTPLHYACRQGGPGSVNNLLGFNVSIHSKSKDKKSPLHFAASYGRINTCQRLLQDISDTRLLNEGDLHGMTPLHLAAKNGHDKVVQLLLKKGALFLSDHNGWTALHHASMGGYTQTMKVILDTNLKCTDRLDEDGNTALHFAAREGHAKAVALLLSHNADIVLNKQQASFLHLALHNKRKEVVLTIIRSKRWDECLKIFSHNSPGNKCPITEMIEYLPECMKVLLDFCMLHSTEDKSCRDYYIEYNFKYLQCPLEFTKKTPTQDVIYEPLTALNAMVQNNRIELLNHPVCKEYLLMKWLAYGFRAHMMNLGSYCLGLIPMTILVVNIKPGMAFNSTGIINETSDHSEILDTTNSYLIKTCMILVFLSSIFGSCKEAGQIFQQKRNYFMDISNVLEWIIYTTGIIFVLPLFVEIPAHLQWQCGAIAVYFYWMNFLLYLQRFENCGIFIVMLEVILKTLLRSTVVFIFLLLAFGLSFYILLNLQDPFSSPLLSIIQTFSMMLGDINYRESFLEPYLRNELAHPVLSFAQLVSFTIFVPIVLMNLLIGLAVGDIAEVQKHASLKRIAMQVELHTSLEKKLPLWFLRKVDQKSTIVYPNKPRSGGMLFHIFCFLFCTGEIRQEIPNADKSLEMEILKQKYRLKDLTFLLEKQHELIKLIIQKMEIISETEDDDSHCSFQDRFKKEQMEQRNSRWNTVLRAVKAKTHHLEP
GCaMP6f peak amplitude upon ultrasound stimulation, variant versus full-length hsTRPA1 ([1]; transfected HEK cells): complete loss of ultrasound sensitivity | GCaMP6f peak amplitude upon treatment with AITC, variant versus full-length hsTRPA1 [7]: without affecting responsiveness to AITC

— patent publication US20230263891A1, “SONOGENETIC STIMULATION OF CELLS EXPRESSING TRPA1” (Salk Institute for Biological Studies, priority 2020, published 2023)
